Results published in US9611295B2, “Treatment of IL-17 mediated disease by blocking SEFIR-SEFIR interactions” (THE CLEVELAND CLINIC FOUNDATION, priority 2011, dated 2017).

Columns and labels:
[1] = system: IL-25-dependent signaling; experiment: IL-25-dependent signaling in MEFs by Western blotting (pIκB, pJNK, pERK, pp38 MAPK); assay type: cell-based, mouse
Method: FIG. 4 provides data showing that a cell-permeable CC′ loop decoy peptide disrupts the interaction between Act1 and IL-17RA and inhibits IL-17R and IL-25R signaling. FIG. 4A provides sequences of Antennapedia homeodomain (Antp) (SEQ ID NO: 11)and decoy peptides (SEQ ID NOS 23-25 and 17, respectively, in order of appearance) with the Antp sequence underlined. FIG. 4B provides flow cytometry results based on experiments in which MEFs expressing IL-17RB were incubated for 2 or 24 hours with the indicated FITC-tagged peptides (200 μM) and were then analyzed by flow cytometry. […] The percentages of FITC-positive cells in the treated samples are shown. FIG. 4C provides Western blot results of experiments in which HeLa cells were cotransfected with plasmids encoding FLAG-tagged mAct1 and V5-tagged IL-17RA and were cultured for 24 hours, after which they were incubated for 24 hours with the indicated peptides (200 μM). IL-17RA was immunoprecipitated from the samples with antibody against the V5 tag, and samples were then subjected to Western blotting analysis with the indicated antibodies. FIG. 4D provides Western blot results of experiments in which MEFs expressing IL-17RB were incubated with the indicated peptides (200 μM) for 24 hours after which they were treated with IL-17 or IL-25 and then analyzed by Western blotting with the indicated antibodies. FIG. 4E provides bar graphs showing the results of experiments in which MEFs expressing IL-17RB were incubated with the indicated peptides (200 μM) for 24 hours, after which they were treated with IL-17 or IL-25 for 3 hours. The abundances of Cxcl1 and Il13 mRNAs were then measured by real-time RT-PCR. […]
Decoy peptides are based on surface-exposed regions of the primary sequence of a protein to mimic a putative interaction interface. […] These decoy peptides were also tagged at their C-termini with fluorescein isothiocyanate (FITC) to enable their cell-penetrating efficiency to be evaluated by flow cytometric sanalysis. […]

[2] = system: IL-17-induced pulmonary inflammation; experiment: IL-17-induced pulmonary inflammation in BALB/c mice; assay type: in vivo, mouse
Method: FIG. 5 provides bar graph and staining data showing that a cell-permeable CC′ loop decoy peptide inhibits IL-17- and IL-25-induced pulmonary inflammation. Wild-type (WT) female BALB/c mice (n=4 mice per group) were pretreated with DMSO, scrambled peptide, or the CC′ loop decoy peptide for 4 hours, after which they were administered saline, IL-17, or IL-25 intranasally. Mice were sacrificed and analyzed 16 hours after injection with IL-17 or 4 days after injection with IL-25. […] All experiments were performed three times. *P<0.05.
It has been shown that Act1 plays an essential role in IL-17- and IL-25-mediated pulmonary inflammation. Thus, the inventors examined whether the Act1 SEFIR domain CC′ loop decoy peptide ameliorated IL-17- and IL-25-induced airway inflammation in vivo. BALB/c mice were pretreated with scrambled peptide or with the Act1 SEFIR domain CC′ loop decoy peptide for 4 hours, after which we injected the mice intranasally with IL-17 or IL-25. […] Consistently, IL-17-induced lung and airway recruitment of granulocytes was reduced in mice pretreated with the CC′ loop decoy peptide compared to that in mice pretreated with the scrambled peptide (FIG. 5C). The lower grade of pulmonary inflammation in the mice treated with the CC′ loop decoy peptide correlated with the decreased IL-17-dependent expression of genes encoding MCP-1 and GM-CSF in the lung tissues (FIG. 5D). […] IL-25-induced lung and airway recruitment of granulocytes, predominantly eosinophils, as well as mucin production, as determined by Periodic acid-Schiff (PAS) staining, were reduced in mice pretreated with the CC′ loop decoy peptide compared to that in mice pretreated with the scrambled peptide (FIG. 5G). The decreased pulmonary inflammation in […] correlated with decreased expression of genes encoding the TH2-type cytokines IL-5 and IL-13 in the lungs (FIG. 5H).
Intranasal injection of mice with IL-17 and IL-25: Wild-type BALB/c female mice were pretreated with dimethyl sulfoxide (DMSO, the solvent for peptides), scrambled peptide, or the CC′ loop decoy peptide for 4 hours, after which they underwent intranasal administration of saline, IL-17 (4 μg/mouse), or IL-25 (4 μg/mouse). For IL-25-treated mice, decoy peptides were administrated daily through intranasal injection after pretreatment. Mice were anesthetized with isoflurane and sacrificed. BAL fluid was collected 16 hours after injection with IL-17 or 4 days after injection with IL-25. A total of 0.7 ml of HL-1 medium (BioWhittaker®) was used to obtain BAL fluid through trachea with a blunt needle and a 1-ml syringe. Cytospin slide preparations were obtained with a Shandon CytoSpin III Cytocentrifuge (Shandon/Thermo Scientific). Differential leukocyte counts were obtained on cytospin slide preparations after incubation with Diff Quik Giemsa stain. Cytokines in the BAL were analyzed by MultipleX plate (Invitrogen®). H&E and PAS staining were performed on lung tissues after fixation in 10% neutral-buffered formalin and paraffin embedding to detect pulmonary inflammation and for assessment of goblet cell metaplasia and mucin accumulation in airway epithelial cells.

[3] = 4 hours pretreatment, intranasal IL-17, 16 hours, vs scrambled peptide

DRQIKIWFQNRRMKWKKLDEDEHGLHTKY [CC′ loop decoy peptide]
IL-25-dependent signaling (pIκB, pJNK, pERK, pp38 MAPK) ([1]; MEFs expressing IL-17RB, peptides 200 μM, 24 hours): partly attenuated
dose and time dependence of inhibition of IL-25-dependent signaling and gene expression ([1]; data not shown): dose-and time-dependent manner
GM-CSF in BAL fluid [2, 3]: substantially reduced
MCP-1 in BAL fluid [2, 3]: substantially reduced
neutrophil counts in BAL fluid [2, 3]: substantially reduced
neutrophil counts in BAL fluid ([2]; 4 hours pretreatment, intranasal IL-17, 16 hours, vs scrambled peptide, listed as CC′ peptide): reduced accumulation
dose dependence of inhibition of IL-17-induced pulmonary inflammation ([2]; data not shown): dose-dependent manner
IL-17-dependent expression of genes encoding MCP-1 and GM-CSF in lung tissues ([2]; real-time RT-PCR): decreased
IL-17-induced lung and airway recruitment of granulocytes (H&E) ([2]; vs scrambled peptide): reduced
